# Experiments:
# [1] = tested on: E. histolytica trophozoites; test: Cell morphology by confocal microscopy (actin); type: cell-based, Entamoeba histolytica; conditions: phalloidin-rhodamine, treatment with IC50
# Description: Then, the culture medium was removed, and the adhered cells were fixed with 4% paraformaldehyde for 1 h at 37 °C. The samples were washed three times with 1× PBS and incubated with 1:50 phalloidin–rhodamine (R415, Invitrogen; Carlsbad, CA, USA) for 1 h at 37 °C. Finally, the cells were washed, mounted with VectaShield/DAPI medium (Vector Laboratories; Newark, CA, USA), and observed with a confocal microscope (LSM-700, Zeiss; Oberkochen, Germany).
# [2] = Paraclinical analysis (serum biochemistry, hematic biometry) in ALA hamsters; type: in vivo, Mesocricetus auratus; parameters: BUN: unit not given here
# Description: Serum was obtained by centrifugation at 3500 rpm and frozen at −70 °C until analysis. Hematic biometry was performed in a hematology autoanalyzer system (BC-2300, Mindray; Shenzhen, China), and biochemical parameters were made on an automatic medical system (Prestige 24i, Tokyo Boeki; Kanagawa, Japan).
# [3] = blood, ALA hamsters, i.p. 4 days
# [4] = serum, ALA hamsters, i.p. 4 days
smiles,measurement,setting,value
"C[C@]12C[C@H](c3ccoc3)OC(=O)[C@H]1CCC13COC(=O)C1=CC=C[C@H]32 (stereo partly drawn) [LL, (4S,7R,9R,10S)-7-(furan-3-yl)-9-methyl-6,16-dioxatetracyclo[8.7.0.01,14.04,9]heptadeca-11,13-diene-5,15-dione]",actin cytoskeleton alteration,[1],reduction in polymerized actin
same,AL/GGT ratio,[2]; ALA prognosis ratio,0.23 ± 0.038
same,Erythrocytes,[2]; [3],6.7 ± 0.4 x10 6/mm3
same,Hematocrit,[2]; [3],45.4 ± 2.9%
same,Hemoglobin,[2]; [3],16 ± 0.8 g/dL
same,Leukocytes,[2]; [3],7.1 ± 1.8 x100/mm3
same,MCH,[2]; [3],24 ± 0.3 pg
same,MCHC,[2]; [3],35 ± 0.9 g/dL
same,MCV,[2]; [3],68 ± 2.2 fL
same,MPV,[2]; [3],7.7 ± 0.5 fL
same,PCT,[2]; [3],0.2 ± 0.0%
same,PDW,[2]; [3],9.4 ± 0.3 fL
same,Platelets,[2]; [3],303 ± 31 x106/μL
same,RDW-CV,[2]; [3],14.7 ± 0.6 fL
same,RDW-SD,[2]; [3],40 ± 2.3 fL
same,TB/AL ratio,[2]; drug toxicity ratio,0.22 ± 0.005
same,neutrophil/lymphocyte ratio,[2]; hematic ratio,1.66 ± 1.26
same,BUN/CR ratio,[2]; kidney damage ratio,31.6 ± 9.8
same,urea/CR ratio,[2]; kidney damage ratio,73.1 ± 26
same,ALP/TB ratio,[2]; liver injury ratio,10.85 ± 1.28
same,ALT/ALP ratio,[2]; liver injury ratio,0.25 ± 0.05
same,AST/ALT ratio (De Ritis ratio),[2]; liver injury ratio,> 1
same,Band neutrophils,[2]; manual differential analysis,0%
same,Basophils,[2]; manual differential analysis,0%
same,Eosinophils,[2]; manual differential analysis,0%
same,Immature forms,[2]; manual differential analysis,0%
same,Lymphocytes,[2]; manual differential analysis,44 ± 21%
same,Monocytes,[2]; manual differential analysis,0%
same,Segmented neutrophils,[2]; manual differential analysis,56 ± 21%
same,ALT (GPT),[2]; [4],89 ± 16 U/L
same,AST (GOT),[2]; [4],163 ± 22 U/L
same,Albumin,[2]; [4],1.7 ± 0.1 g/dL
same,Alkaline phosphatase,[2]; [4],355 ± 9.5 U/L
same,BUN,[2]; [4],16.1 ± 1.5
same,Cholesterol,[2]; [4],105 ± 24 mg/dL
same,Creatinine,[2]; [4],0.54 ± 0.2 mg/dL
same,Direct bilirubin,[2]; [4],0.26 ± 0.04 mg/dL
same,GGT,[2]; [4],7.5 ± 2.1 U/L
same,Glucose,[2]; [4],123 ± 20 mg/dL
same,Indirect bilirubin,[2]; [4],0.12 ± 0.0 mg/dL
same,Total bilirubin,[2]; [4],0.37 ± 0.04 mg/dL
same,Total protein,[2]; [4],5.3 ± 0.3 g/dL
same,Triglycerides,[2]; [4],132 ± 8.7 mg/dL
same,Urea,[2]; [4],37 ± 6.01 mg/dL

# From article PMC11477209, “Toxicological Evaluation of Kaempferol and Linearolactone as Treatments for Amoebic Liver Abscess Development in Mesocricetus auratus” (International Journal of Molecular Sciences, 2024)
